Values of other authors, collected in patent US20190117669A1, “Methods for Treating NSAID-Induced Cardiovascular, Cerebrovascular, or Renovascular Adverse Events” (University of Utah Research Foundation, priority 2016, published 2019).

Tests used:
[1] = dogs, misoprostol 3 mcg/kg every 8 hours for 8 days
[2] = rats, all misoprostol-treated groups

CCCCC(C)(O)C/C=C/[C@H]1[C@H](O)CC(=O)[C@@H]1CCCCCCC(=O)OC (mixture of isomers) [misoprostol]
azotemia, hyperphosphatemia and renal histopathologic changes versus gentamicin alone [1]: more severe azotemia, hyperphosphatemia, and renal histopathologic changes | blood pressure [2]: increased
